From ChEMBL document CHEMBL3588813, “Antifungal Amphiphilic Aminoglycosides” (Medchemcomm, 2014) come the findings set out here.

SMILES strings stand for the structures. Converted amounts (≈) assume the structure as drawn.

The test system of data set [1] is Fusarium graminearum. As to the kind of experiment: Antimicrobial activity against Fusarium graminearum B4-5A infection in wheat assessed as reduction in spikelet infection rate at 30 ug/ml pre-treated 24 hrs before infection. The class given is functional.
The subject of another data set is Botrytis cinerea. As to the kind of experiment: Antimicrobial activity against Botrytis cinerea using potato dextrose broth as growth medium and diluent. The class given is functional.
Another data set deals with Phoma. Kind of data set: Antimicrobial activity against Phoma spp. using potato dextrose broth as growth medium and diluent. The class given is functional.
Data set [2] concerns Fusarium graminearum. Kind of data set: Antimicrobial activity against Fusarium graminearum B4-5A using potato dextrose broth as growth medium and diluent. It counts as functional.
Data set [3] can be described thus: Selectivity index, ratio of IC50 for human C8161.9 cells to MIC for Saccharomyces cerevisiae.
Data set [4] deals with Fusarium graminearum. As to the kind of experiment: Antimicrobial activity against Fusarium graminearum B4-5A using RPMI medium by microbroth dilution assay. The class given is functional.
A further data set deals with Fusarium oxysporum. Kind of data set: Antimicrobial activity against Fusarium oxysporum using potato dextrose broth as growth medium and diluent. The class given is functional.
In data set [5] the test system is Fusarium graminearum. Kind of data set: Antimicrobial activity against Fusarium graminearum B4-5A infecrtion in wheat assessed as Fusarium head blight disease incidence at 5 ug/ml pre-treated 24 hrs before infection (reference value: 61%). The class given is functional.
The next data set concerns Escherichia coli. Kind of data set: Antimicrobial activity against Escherichia coli ATCC 25922 using potato dextrose broth as growth medium and diluent. The class given is functional.
The subject of data set [6] is Fusarium graminearum. Kind of data set: Antimicrobial activity against Fusarium graminearum […] in wheat assessed as reduction in Fusarium head blight disease incidence at 1080 ug/ml pre-treated 24 hrs before infection. It counts as functional.
Data set [7] concerns Fusarium graminearum. As to the kind of experiment: Antimicrobial activity against Fusarium graminearum B4-5A infecrtion in wheat assessed as Fusarium head blight disease incidence at 1080 ug/ml pre-treated 24 hrs before infection (reference value: 61%). The class given is functional.
Another data set deals with Microdochium nivale. Kind of data set: Antimicrobial activity against Microdochium nivale using potato dextrose broth as growth medium and diluent. It counts as functional.
Another data set concerns Staphylococcus aureus. Kind of data set: Antimicrobial activity against Staphylococcus aureus using potato dextrose broth as growth medium and diluent. The class given is functional.
The subject of data set [8] is Fusarium graminearum. As to the kind of experiment: Antimicrobial activity against Fusarium graminearum B4-5A infecrtion in wheat assessed as Fusarium head blight disease incidence at 180 ug/ml pre-treated 24 hrs before infection (reference value: 61%). The class given is functional.
In another data set the test system is Ulocladium. As to the kind of experiment: Antimicrobial activity against Ulocladium spp. using potato dextrose broth as growth medium and diluent. The class given is functional. The following applies: Alternaria sect. Ulocladium.
A further data set concerns Curvularia brachyspora. As to the kind of experiment: Antimicrobial activity against Curvularia brachyspora using potato dextrose broth as growth medium and diluent. The class given is functional.
Data set [9] is described as follows: Cytotoxic activity against human C8161.9 cells. The class given is cell-based.
Data set [10] is described as follows: Induction of hemolysis in sheep erythrocytes at 28 ug/ml. The class given is cell-based, Ovis aries, Erythrocyte. The following applies: read-out: Activity.
For data set [11], the system named is Fusarium graminearum. As to the kind of experiment: Antimicrobial activity against Fusarium graminearum B4-5A infection in wheat assessed as reduction in spikelet infection rate at 5 ug/ml pre-treated 24 hrs before infection. The class given is functional.
For another data set, the system named is Rhizopus stolonifer. As to the kind of experiment: Antimicrobial activity against Rhizopus stolonifer using potato dextrose broth as growth medium and diluent. It counts as functional.
A short description of data set [12]: Induction of hemolysis in sheep erythrocytes at 313 ug/ml. The class given is cell-based, Ovis aries, Erythrocyte. The following applies: read-out: Activity.
Data set [13] is described as follows: Cytotoxic activity against mouse NIH/3T3 cells. It counts as cell-based, NIH3T3.
Another data set has as its system Globisporangium ultimum. Kind of data set: Antimicrobial activity against Pythium ultimum using potato dextrose broth as growth medium and diluent. It counts as functional.
For data set [14], the system named is Fusarium graminearum. As to the kind of experiment: Antimicrobial activity against Fusarium graminearum B4-5A infecrtion in wheat assessed as Fusarium head blight disease incidence at 30 ug/ml pre-treated 24 hrs before infection (reference value: 61%). The class given is functional.
The subject of another data set is Rhodotorula mucilaginosa. Kind of data set: Antimicrobial activity against Rhodotorula piliminae using potato dextrose broth as growth medium and diluent. The class given is functional.
Data set [15] concerns Cladosporium cladosporioides. As to the kind of experiment: Antimicrobial activity against Cladosporium cladosporioides using potato dextrose broth as growth medium and diluent. It counts as functional.
The test system of another data set is Candida albicans. As to the kind of experiment: Antimicrobial activity against Candida albicans 10231 using potato dextrose broth as growth medium and diluent. It counts as functional.
The test system of a further data set is Verticillium. As to the kind of experiment: Antimicrobial activity against Verticillium spp. using potato dextrose broth as growth medium and diluent. It counts as functional.
A short description of data set [16]: Selectivity index, ratio of IC50 for mouse NIH/3T3 cells to MIC for Saccharomyces cerevisiae.

`CCCCCCCCO[C@H]1[C@H](N)[C@@H](O)[C@@H](O[C@@H]2[C@@H](O)[C@H](O[C@H]3O[C@H](CN)[C@@H](O)[C@H](O)[C@H]3N)[C@@H](N)C[C@H]2N)O[C@@H]1C`: the inhibition at 30 µg/mL with Fusarium graminearum [1] was found to be 49%. For the same molecule, the MIC with Botrytis cinerea amounted to 31.3 µg/mL (≈ 54 µM); in the data set with Phoma it was 31.3 µg/mL (≈ 54 µM); with Fusarium graminearum [2] it was 7.8 µg/mL (≈ 13.5 µM); in the data set on Fusarium graminearum [4] it was 31.5 µg/mL (≈ 54.3 µM); against Fusarium oxysporum, 7.8 µg/mL (≈ 13.5 µM); with Escherichia coli, 250 µg/mL (≈ 431 µM). The MIC stood at 3.9 µg/mL (≈ 6.73 µM) in the data set with Microdochium nivale; 62.5 µg/mL (≈ 108 µM) against Staphylococcus aureus; 7.8 µg/mL (≈ 13.5 µM) in the data set on Ulocladium; 31.3 µg/mL (≈ 54 µM) against Curvularia brachyspora; 31.3 µg/mL (≈ 54 µM) in the data set with Rhizopus stolonifer; 15.6 µg/mL (≈ 26.9 µM) in the data set on Globisporangium ultimum. In addition, the MIC against Rhodotorula mucilaginosa was found to be 7.8 µg/mL (≈ 13.5 µM); in data set [15], 31.3 µg/mL (≈ 54 µM); with Candida albicans, 31.3 µg/mL (≈ 54 µM); with Verticillium, 15.2 µg/mL (≈ 26.2 µM). The “Selectivity Index” value in [3] and in [16] was 10 throughout. The Activity in the data set with Fusarium graminearum [5] is 76%; in the data set with Fusarium graminearum [7] it was 80%; in the data set on Fusarium graminearum [8], 76%; in data set [9] (human), “Dose-dependent effect”; in [13] (mouse, nih3t3) it was “Dose-dependent effect”; in the data set with Fusarium graminearum [14] it was 70%. Besides, the inhibition at 1080 µg/mL with Fusarium graminearum [6] turned out to be 82%. Further, the half-inhibitory concentration (IC50) in [9] (Homo sapiens) was greater than 250 µg/mL; in [13] (Mus musculus, NIH3T3) it was greater than 250 µg/mL. For the same molecule, the hemolysis at 28 ug/ml in data set [10] turned out to be 2%. The inhibition at 5 µg/mL in the data set on Fusarium graminearum [11] is 29%. In addition, the hemolysis at 313 ug/ml in [12] is greater than 20%.
`CC1(C)CCC(Cc2ccc(Cl)cc2)C1(O)Cn1cncn1` (centres undefined) [METCONAZOLE]: the MIC against Botrytis cinerea is 7.8 µg/mL (≈ 24.4 µM); in the data set on Fusarium graminearum [2], 3.9 µg/mL (≈ 12.2 µM); with Rhodotorula mucilaginosa it was 15.6 µg/mL (≈ 48.8 µM).

What is called inhibition is the change of the read-out against control, counted positive when it falls. For orientation: MIC means the lowest concentration that inhibits growth of the organism. One may read the IC50 as the point on the concentration scale where inhibition reaches its midpoint.
